According to US20250059604A1, “BIOMARKERS AND METHODS RELATED TO FRAGILE X SYNDROME” (University of Massachusetts, priority 2021, published 2025):
Several values for one entry are separate records, joined by “and”; a condition that tells them apart may be missing. Equal entries are not always repeated. Where two headings read alike, the source gives them in different places.

Assays:
[1] = test system: FMR1 transcripts (total, FMR1-205, FMR1-217) in FXS-NSC; details: FXS iPSC-derived NSCs, re-analyzed from RNA-seq data of Vershkov et al., cited from earlier work
[2] = test system: FMRP; assay: 5-AzadC treatment of FXS lymphoblast cell lines, western blot of FMRP relative to GAPDH; type: cell-based, human; details: FXS1 and FXS2 LCLs, 5-AzadC vs DMSO
Protocol: For each cell culture, 30×10^5 cells/ml were added to a final volume of 20 ml media (RPMI1640 medium (Sigma-Aldrich) supplemented with 15% fetal bovine serum (FBS) and 2.5% L-glutamine at 37° C. with 5% C02) per T25 flask. 5-Aza-2′-deoxycytidine (5-AzadC) (Sigma-Aldrich, A3656) was added to the cell cultures (final concentration 1 μM) for 7 consecutive days. A 2 mM stock of 5-AzadC was made in DMSO. For each cell line, two independent treatments were performed (n=2). For the no treatment controls for each cell line, DMSO was added to the flasks. […]
Cells were homogenized at 4° C. in RIPA buffer, with incubation on ice for 10 minutes and dissociation by pipetting. […] Protein concentration was determined using BCA reagent. Proteins ([…]) were diluted in SDS-bromophenol blue reducing buffer with 40 mM DTT and analyzed using western blotting with the following antibodies: FMRP (Millipore, mAb2160, 1:1,000), FMRP (Abcam, ab17722, 1:1,000) and GAPDH (14C10, Cell Signaling Technology, mAb 2118, 1:2,000), diluted in 1× TBST with 5% non-fat milk. […]
(§1) DNA methylation of the CpG island upstream of the FMR1 gene promoter in FXS individuals (MFM, Methylated full mutation) contributes to transcriptional silencing of the locus and loss of FMRP. […] Next, FXS1 and FXS2 cell lines were treated with the 5-AzadC and then measured FMR1 RNA and FMRP levels. […]

[3] = test system: FMR1 RNA (full-length FMR1 and FMR1-217) in FXS1 and FXS2 LCLs; assay: 5-AzadC treatment of FXS lymphoblast cell lines, RT-qPCR of full-length FMR1 and FMR1-217 RNA relative to GAPDH; type: cell-based, human; details: 1 μM, seven days, RT-qPCR normalized to GAPDH
Protocol: One μg of total RNA was primed with oligo(dT)20 to generate cDNA with a QuantiTect cDNA synthesis kit (Qiagen, #205311) using random hexamers. qPCR was performed using the iTaq™ Universal SYBR® Green Supermix (BIO-RAD #1725122) on a QuantStudio 3 qPCR machine in duplicate.
Lymphoblast cell lines (LCL) were obtained from Coriell Institute from two FXS individuals (GM07365 (FXS1), GM06897 (FXS2)) and two typically developing control males (GM07174 (WT3), GM06890 (WT4)). Cells were cultured in RPMI 1640 medium (Sigma-Aldrich), supplemented with 15% fetal bovine serum (FBS) and 2.5% L-glutamine at 37° C. with 5% CO2 in T25 flasks.
For each cell culture, 30×10^5 cells/ml were added to a final volume of 20 ml media (RPMI1640 medium (Sigma-Aldrich) supplemented with 15% fetal bovine serum (FBS) and 2.5% L-glutamine at 37° C. with 5% C02) per T25 flask. 5-Aza-2′-deoxycytidine (5-AzadC) (Sigma-Aldrich, A3656) was added to the cell cultures (final concentration 1 μM) for 7 consecutive days. A 2 mM stock of 5-AzadC was made in DMSO. For each cell line, two independent treatments were performed (n=2). For the no treatment controls for each cell line, DMSO was added to the flasks. For samples with both 5-AzadC and ASO treatment, 80 nM or 160 nM ASOs or vehicle were added on Day 1 and either 5-AzadC or DMSO was added each day from Day 2 up to Day 9 at a final concentration of 1 μM. On Day 9 the cells were collected in 1× phosphate buffered saline to proceed with RNA extraction or Western blotting.
as §1, with “FMRP. FMR1 transcription can be reactivated by treatment with the nucleoside analogue 5-AzadC (5-aza-2′-deoxycytidine), which inhibits DNA methylation (Tabolacci et al., 2016b, 2016a).” for “FMRP.”

[4] = FXS1 LCL (GM07365, fully methylated)

Which “FMR1 (Total) reads” value ([1]; biologic duplicates) does the source give for `Nc1ncn([C@H]2C[C@H](O)[C@@H](CO)O2)c(=O)n1` [5-AzadC, 5-Aza-2′-deoxycytidine] here?
Its value is 9.9 TPM and 6.1 TPM.

And the FMR1-217 reads ([1]; biologic duplicates)?
The FMR1-217 reads was 6.9 TPM and 3.9 TPM.

What about the “FMR1-217 expression (RNA-seq reads), in words” value [1] of the same compound?
Its value is “strong FMR1-217 expression was observed only in the 5-AzadC-treated cells”.

And the “total FMR1 and FMR1-205 expression (RNA-seq reads), in words” value [1]?
The value was “strong total FMR1 and FMR1-205 expression”.

And the “FMR1-217 expression (RNA-seq reads), in words” value ([1]; listed as 5-azadC)?
The value was “FMR1-217 reads are detected only in the 5-azadC-treated samples”.

What about the “FMRP level (FMRP/GAPDH, western blot)” value [2] of the same compound?
Its value is “In neither cell line did 5-AzadC treatment induce an increase in FMRP”.

What about the “FMR1-217 RNA relative to DMSO-treated cells” value [3, 4] of the same compound?
Its value is “significant increases”.

What about the “full-length FMR1 RNA relative to DMSO-treated cells” value [3, 4] of the same compound?
Its value is “significant increases”.

What about the “full-length FMR1 and FMR1-217 RNA relative to DMSO-treated cells” value ([3]; FXS2 LCL (GM06897, partially methylated)) of the same compound?
Its value is “increase of only full-length FMR1 RNA”.
